Laboratory results taken from patent US20190308988A1, “OPIOID RECEPTOR ANTAGONIST PRODRUGS” (Nirsum Laboratories, Inc., priority 2017, published 2019).
Values after ≈ are worked out from the molar mass of the structure shown. Counter-ions that a name gives are not always drawn. Like-named read-outs stand apart in the source and are kept apart here.

What was measured:
KOR = target: T1, KOR (Homo sapiens, UniProt P41145); assay: Opioid receptor binding assay, KOR ([3H]Diprenorphine)
T1 construct: expressed in transfected cells
T1 sequence (P41145 whole entry): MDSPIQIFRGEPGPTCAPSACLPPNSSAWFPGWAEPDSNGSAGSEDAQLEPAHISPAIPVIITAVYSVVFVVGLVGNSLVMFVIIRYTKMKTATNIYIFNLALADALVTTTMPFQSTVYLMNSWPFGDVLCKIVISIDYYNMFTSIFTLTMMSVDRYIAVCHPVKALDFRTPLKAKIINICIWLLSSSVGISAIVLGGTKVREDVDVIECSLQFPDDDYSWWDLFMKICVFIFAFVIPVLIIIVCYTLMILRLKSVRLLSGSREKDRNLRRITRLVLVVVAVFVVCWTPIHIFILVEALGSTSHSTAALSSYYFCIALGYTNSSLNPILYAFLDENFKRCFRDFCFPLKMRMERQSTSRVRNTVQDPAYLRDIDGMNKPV
Experimental: (§1) Receptor binding assays were performed to assess the ability of compounds to inhibit binding to radiolabeled ligand.
(§2) The stable cell lines were established and prepared cell membrane obtained using these cell lines.
(§3) 1) Transfer 1 μl of specified concentration compound to assay plate according to the plate map for nonspecific binding. Transfer 1 μl of DMSO to assay plate according to plate map for total binding. 2) Follow the plate map. Dispense 99 μl of membrane stocks into the plate. 3) Add 100 μl of radio ligand. 4) Seal the plates. Incubate at RT for 1 hour. 5) Soak the Unifilter-96 GF/C filter plates with 50 μl of 0.3% PEI per well for at least 0.5 hour at room temperature. 6) When binding assays are completed, filter the reaction mixture through GF/C plates using Perkin Elmer Filtermate Harvester, and then wash each plate for 4 times with cold wash buffer. 7) Dry the filter plates for 1 hour at 50 degrees. 8) After drying, seal the bottom of the filter plate wells using Perkin Elmer Unifilter-96 backing seal tape. Add 50 μl of Perkin Elmer Microscint 20 cocktail. Seal top of filter plates with Perkin Elmer TopSeal-A sealing film. 9) Count ^3H trapped on filter using Perkin Elmer MicroBeta2 Reader second day. 10) Analyze the data with GraphPad Prism 5. Calculate the “Inhibition [% Control]” using the equation: % Inh=(1−Background subtracted Assay value/Background subtracted HC value)*100.

[1] = Solubility determination in oil (Table 10); conditions: thermodynamic from solid; for solubility at 24 h: 25 °C, Obs. Temp. 25 °C; for solubility thermodynamic / solubility: 40 °C, Obs. Temp. 40 °C; for solubility thermodynamic: water, Equilibrium solubility: Water
Experimental: A known amount of test substance (˜40 mg) was weighed into the vial, 100 μL of oil was added and heated to 60° C. and then system was slurried to reach equilibrium. […] Extra oil was added into the vial once compound precipitated out and then the system was re-equilibrated at 1000 rpm at room temperature (25° C.). Final concentration was determined by HPLC method as described below in Table 6a and 6b.

DOR = target: T2, DOR (Homo sapiens, UniProt P41143); assay: Opioid receptor binding assay, DOR ([3H]-DADLE)
T2 construct: expressed in transfected cells
T2 sequence (P41143 whole entry): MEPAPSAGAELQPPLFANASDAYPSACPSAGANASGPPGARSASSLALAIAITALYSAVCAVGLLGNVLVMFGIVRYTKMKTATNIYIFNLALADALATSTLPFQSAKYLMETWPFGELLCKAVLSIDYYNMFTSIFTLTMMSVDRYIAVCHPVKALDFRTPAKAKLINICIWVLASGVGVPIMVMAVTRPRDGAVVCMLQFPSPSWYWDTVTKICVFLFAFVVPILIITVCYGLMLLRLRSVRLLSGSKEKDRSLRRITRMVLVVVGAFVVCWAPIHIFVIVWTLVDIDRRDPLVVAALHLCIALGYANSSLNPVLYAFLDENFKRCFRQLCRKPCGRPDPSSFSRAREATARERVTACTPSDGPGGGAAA
Experimental: as §1, §2, §3

MOR = target: T3, MOR (Homo sapiens, UniProt P35372); assay: Opioid receptor binding assay, MOR ([3H]DAMGO)
T3 construct: expressed in transfected cells
T3 sequence (P35372 whole entry): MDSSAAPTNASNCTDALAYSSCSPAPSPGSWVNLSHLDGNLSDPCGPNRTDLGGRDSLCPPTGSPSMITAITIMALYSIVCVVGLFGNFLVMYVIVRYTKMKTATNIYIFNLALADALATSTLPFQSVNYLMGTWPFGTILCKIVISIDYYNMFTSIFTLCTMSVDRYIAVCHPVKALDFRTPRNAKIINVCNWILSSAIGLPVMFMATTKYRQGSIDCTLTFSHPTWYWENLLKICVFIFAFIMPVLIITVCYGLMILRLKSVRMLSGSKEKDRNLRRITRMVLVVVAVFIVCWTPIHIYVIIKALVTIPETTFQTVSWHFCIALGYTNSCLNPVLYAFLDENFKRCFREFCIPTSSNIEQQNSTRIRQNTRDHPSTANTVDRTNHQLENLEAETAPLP
Experimental: as §1, §2, §3

[2] = Rat pharmacokinetic studies, intramuscular administration; assay type: in vivo, male Sprague Dawley Rats; conditions: for AUC(0-inf): read-out: AUC0-inf (ng · h/mL) prodrug
Experimental: The purpose of this study is to determine the pharmacokinetics of test compounds in plasma, following intramuscular administration to male Sprague Dawley Rats (n=3, unless otherwise specified).
The dose formulation of 400 mg base equivalents/ml in sesame oil+1% benzyl alcohol (unless otherwise specified) was administered by intramuscular injection. The dose volume was determined by the animals' body weight determined on the morning of dosing day.
Each collected blood sample was centrifuged for 4 minutes at 4° C. and 10000 rpm for plasma collection. Plasma was collected and transferred into a pre-labeled PP tube in dry ice at each time point and precipitated immediately using ACN at a ratio of 1:4 (plasma:ACN). Centrifuged again (10 minutes, 12000 rpm) and obtain the supernatant.
LC-MS/MS methods for the quantitative determination of test compound in biological matrix were developed. […] The sample analysis was performed concurrently with a set of calibration standards and two sets of QC samples using the LC-MS/MS method.
Plasma concentration versus time data was analyzed by non-compartmental approaches using the Phoenix WinNonlin 6.3 software program. Cmax, Tmax, T1/2, AUC(0-t), AUC(0-inf), MRT(0-t), MRT(0-inf) and graphs of plasma concentration versus time profile were prepared.

[3] = oil or lipid, Approximate Solubility in Excipient: Cottonseed oil, Heating Temp. 60 °C
[4] = oil or lipid, Approximate Solubility in Excipient: Sesame oil, Heating Temp. 60 °C
[5] = male, Sprague Dawley, rat, plasma, intramuscular, 0.8 mg/kg

Compound	IC50 (KOR) [µM]	solubility at 24 h [1, 3] [mg/mL]	solubility at 24 h [1, 4] [mg/mL]	solubility thermodynamic ([1]; Heating Temp. 40 °C) [mg/mL]	IC50 (DOR) [µM]	IC50 (MOR) [µM]	further results
C=C1CC[C@@]2(O)C3Cc4ccc(OC(=O)OCCCCCCCCCCCCC)c5c4[C@@]2(CCN3CC2CC2)[C@H]1O5 [Compound 30, (4aS,7aS,12bS)-3-(cyclopropylmethyl)-4a-hydroxy-7-methylene-2,3,4,4a,5,6,7,7a-octahydro-1H-4,12-methanobenzofuro[3,2-e]isoquinolin-9-yl tridecyl carbonate]	0.0887	252 to 404 (≈ 446 to 714 mM)	253 to 399 (≈ 446 to 704 mM)	< 0.001	1.85	0.009	–
C=C1CC[C@@]2(O)C3Cc4ccc(OC(=O)CCCCCCCCCCC)c5c4[C@@]2(CCN3CC2CC2)[C@H]1O5 [Compound 59, (4aS,7aS,12bS)-3-(cyclopropylmethyl)-4a-hydroxy-7-methylene-2,3,4,4a,5,6,7,7a-octahydro-1H-4,12-methanobenzofuro[3,2-e]isoquinolin-9-yl dodecanoate, reference compound]	–	–	–	–	–	–	AUC(0-inf) ([2]; male, Sprague Dawley, rat, plasma, im, 17 mg/kg, Sesame oil + 1% Benzyl Alcohol): 10.4 ng·h/mL; half-life ([2]; male, Sprague Dawley, rat, plasma, im, 17 mg/kg, Sesame oil + 1% Benzyl Alcohol, read-out: Half-life t1/2 (hour) prodrug (converted)): 15.2 h
C=C1CC[C@@]2(O)C3Cc4ccc(OCOC(=O)OCCCCCCCCCCCCCCCC)c5c4[C@@]2(CCN3CC2CC2)[C@H]1O5 [Compound 34, (((4aS,7aS,12bS)-3-(cyclopropylmethyl)-4a-hydroxy-7-methylene-2,3,4,4a,5,6,7,7a-octahydro-1H-4,12-methanobenzofuro[3,2-e]isoquinolin-9-yl)oxy)methyl hexadecyl carbonate]	1.77	> 404	> 405	< 0.001	> 10	0.0125	–
C=C1CC[C@@]2(O)C3Cc4ccc(OC(=O)OCCCCCCCCCCCCCCC)c5c4[C@@]2(CCN3CC2CC2)[C@H]1O5 [Compound 32, (4aS,7aS,12bS)-3-(cyclopropylmethyl)-4a-hydroxy-7-methylene-2,3,4,4a,5,6,7,7a-octahydro-1H-4,12-methanobenzofuro[3,2-e]isoquinolin-9-yl pentadecyl carbonate]	2.12	> 396	> 410	0.0328 (≈ 0.0552 mM)	> 10	0.0174	–
CCCCCCCCOC(=O)Oc1ccc2c3c1O[C@H]1C(=O)CC[C@@]4(O)C(C2)N(CC2CC2)CC[C@]314 [Compound 23, (4aS,7aR,12bS)-3-(cyclopropylmethyl)-4a-hydroxy-7-oxo-2,3,4,4a,5,6,7,7a-octahydro-1H-4,12-methanobenzofuro[3,2-e]isoquinolin-9-yl octyl carbonate]	0.0117	> 408	> 424	–	0.107	0.0028	solubility [1, 3]: > 412 mg/mL; solubility ([1]; organic solvent or mixture, Approximate Solubility in Excipient: Ethanol, Heating Temp. 60 °C): > 419 mg/mL; solubility thermodynamic ([1]; Heating Temp. 60 °C): 0.0094 mg/mL (≈ 0.0189 mM)
CCCCCCCCCCCCOC(=O)OCOc1ccc2c3c1O[C@H]1C(=O)CC[C@@]4(O)C(C2)N(CC2CC2)CC[C@]314 [Compound 29, (((4aS,7aR,12bS)-3-(cyclopropylmethyl)-4a-hydroxy-7-oxo-2,3,4,4a,5,6,7,7a-octahydro-1H-4,12-methanobenzofuro[3,2-e]isoquinolin-9-yl)oxy)methyl dodecyl carbonate]	–	> 410	> 416	< 0.001	–	–	AUC(0-inf) ([2]; male, Sprague Dawley, rat, plasma, im, 165 mg/kg, Sesame oil + 1% Benzyl Alcohol): 74.8 ng·h/mL
C=C1CC[C@@]2(O)[C@H]3Cc4ccc(O)c5c4[C@@]2(CCN3CC2CC2)[C@H]1O5 [nalmefene HCL, reference compound]	–	–	–	–	–	–	concentration at 1 h [2, 5]: 29.4 ng/mL; concentration at 2 h [2, 5]: 2.09 ng/mL; concentration at 4 h [2, 5]: 0.212 ng/mL; concentration at 8 h [2, 5]: 0.0178 ng/mL
C=C1CC[C@@]2(O)C3Cc4ccc(OCOC(=O)OCCCCCCCCCCCCCC)c5c4[C@@]2(CCN3CC2CC2)[C@H]1O5 [Compound 25, (((4aS,7aS,12bS)-3-(cyclopropylmethyl)-4a-hydroxy-7-methylene-2,3,4,4a,5,6,7,7a-octahydro-1H-4,12-methanobenzofuro[3,2-e]isoquinolin-9-yl)oxy)methyl tetradecyl carbonate]	0.889	> 414	> 404	< 0.001	9.54	0.005	–
C=C1CC[C@@]2(O)C3Cc4ccc(OCOC(=O)CCCCCCCCCCCCCCC)c5c4[C@@]2(CCN3CC2CC2)[C@H]1O5 [Compound 46, (((4aS,7aS,12bS)-3-(cyclopropylmethyl)-4a-hydroxy-7-methylene-2,3,4,4a,5,6,7,7a-octahydro-1H-4,12-methanobenzofuro[3,2-e]isoquinolin-9-yl)oxy)methyl hexadecanoate]	0.0339	> 396	202 to 269 (≈ 332 to 443 mM)	< 0.001	1.36	0.00452	–
C=C1CC[C@@]2(O)C3Cc4ccc(OCOC(=O)CCCCCCCCCCC)c5c4[C@@]2(CCN3CC2CC2)[C@H]1O5 [Compound 44, (((4aS,7aS,12bS)-3-(cyclopropylmethyl)-4a-hydroxy-7-methylene-2,3,4,4a,5,6,7,7a-octahydro-1H-4,12-methanobenzofuro[3,2-e]isoquinolin-9-yl)oxy)methyl dodecanoate]	0.0184	> 407	208 to 231 (≈ 377 to 419 mM)	< 0.001	0.19	0.00303	–
C=C1CC[C@@]2(O)[C@H]3Cc4ccc(O)c5c4[C@@]2(CCN3CC2CC2)[C@H]1O5.Cl [Nalmefene HCl - IR]	–	–	–	–	–	–	AUC0-inf (ng · h/mL) nalmefene ([2]; 0.80 mg/kg, saline): 66.0 ng·h/mL; Terminal Half-life t1/2 (hour) nalmefene ([2]; 0.80 mg/kg, saline): 0.87 h
